Test results reported in ChEMBL document CHEMBL1201862, “PubChem BioAssay data set” (2004).
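Exposure lasted 48 hours, with cells grown in 96-well plates and compounds tested at five concentrations. The concentration for 50% growth inhibition is given as GI50.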 Active and inactive are the calls of the source. Rule as the data show it: active = GI50 up to about 1.1 µM and inactive = higher.

Experiments:
Assay in all cases: inhibition of tumour cell growth, NCI panel, 48 h
[1] = test system: COLO 205
[2] = test system: DU-145
[3] = test system: HL-60
[4] = test system: K562
[5] = test system: M14
[6] = test system: MDA-MB-231
[7] = test system: MDA-MB-435
[8] = test system: MOLT-4
[9] = test system: NCI-H460
[10] = test system: RPMI-8226
[11] = test system: SK-OV-3
[12] = test system: SNB-19
[13] = test system: TK-10
[14] = test system: UACC-257
[15] = test system: UO-31
[16] = test system: A549
[17] = test system: HOP-92
[18] = test system: NCI-H522

Row | SMILES | GI50 [1] | GI50 [2] | GI50 [3] | GI50 [4] | GI50 [5] | GI50 [6] | GI50 [7] | GI50 [8] | GI50 [9] | GI50 [10] | GI50 [11] | GI50 [12] | GI50 [13] | GI50 [14] | GI50 [15] | GI50 [16] | GI50 [17] | GI50 [18]
1 | CN(Cc1cnc2nc(N)nc(N)c2n1)c1ccc(C(=O)NC23CC4CC(CC(C4)C2)C3)cc1 | 10.4 µM (inactive) | 10.7 µM (inactive) | 12.2 µM (inactive) | 1.06 µM (active) | 4.14 µM (inactive) | 14.1 µM (inactive) | 10.5 µM (inactive) | 6.68 µM (inactive) | 5.96 µM (inactive) | 22 µM (inactive) | 15.2 µM (inactive) | 6.52 µM (inactive) | 14.5 µM (inactive) | 10.9 µM (inactive) | 11.8 µM (inactive) |  |  | 
2 | C[C@H]1S[C@H](c2c(Cl)cccc2Cl)N2Cc3ccccc3N=C12 | 11.1 µM (inactive) | 13.1 µM (inactive) | 5.9 µM (inactive) | 25.7 µM (inactive) | 11.6 µM (inactive) | 23.9 µM (inactive) | 14.3 µM (inactive) | 8.83 µM (inactive) | 11.3 µM (inactive) | 16 µM (inactive) | 17.7 µM (inactive) | 10.3 µM (inactive) | 17 µM (inactive) | 16.6 µM (inactive) | 12.4 µM (inactive) | 15.2 µM (inactive) | 17.9 µM (inactive) | 
3 | COc1ccc(-n2nnnc2C2(Nc3ccccc3)CCN(Cc3ccccc3)CC2)cc1 | 6.82 µM (inactive) | 24.9 µM (inactive) | 2.56 µM (inactive) | 3.13 µM (inactive) | 14.2 µM (inactive) | 10.4 µM (inactive) | 3.29 µM (inactive) | 5.04 µM (inactive) | 11.2 µM (inactive) | 9.77 µM (inactive) | 13.6 µM (inactive) | 12.3 µM (inactive) | 12.4 µM (inactive) | 13.8 µM (inactive) | 7.48 µM (inactive) | 14.2 µM (inactive) | 3.45 µM (inactive) | 
4 | CC1(c2ccc(Cl)cc2)CC(c2ccc(Cl)cc2)=C(C#N)C(=C(C#N)C#N)N1 (configuration not stated) | 12.8 µM (inactive) | 14.9 µM (inactive) | 19.7 µM (inactive) | 13.8 µM (inactive) | 18.5 µM (inactive) | 22.5 µM (inactive) | 18 µM (inactive) | 6.81 µM (inactive) | 22.9 µM (inactive) | 8.77 µM (inactive) | 16.9 µM (inactive) | 17.5 µM (inactive) | 17.8 µM (inactive) | 17.7 µM (inactive) | 16.3 µM (inactive) | 20.4 µM (inactive) | 3.25 µM (inactive) | 
5 | CCOC(=O)C(C#N)C1=CC(=O)C(=O)c2ccc(O)cc21 (configuration not stated) | > 100 µM (inactive) | > 100 µM (inactive) | > 100 µM (inactive) | > 100 µM (inactive) | 20.9 µM (inactive) | 32.1 µM (inactive) | 21.1 µM (inactive) | > 100 µM (inactive) | > 100 µM (inactive) | > 100 µM (inactive) | > 100 µM (inactive) | > 100 µM (inactive) | > 100 µM (inactive) | 31.9 µM (inactive) | 30.5 µM (inactive) | > 100 µM (inactive) |  | 26.9 µM (inactive)
6 | COC(=O)C1=C(C)NC(C)=C(C(=O)OC)C1c1nc2sccn2c1[N+](=O)[O-] | > 100 µM (inactive) | > 100 µM (inactive) | > 100 µM (inactive) | > 100 µM (inactive) | > 100 µM (inactive) | > 100 µM (inactive) | > 100 µM (inactive) | > 100 µM (inactive) | > 100 µM (inactive) | > 100 µM (inactive) | > 100 µM (inactive) | > 100 µM (inactive) | > 100 µM (inactive) | > 100 µM (inactive) | > 100 µM (inactive) | > 100 µM (inactive) | > 100 µM (inactive) | 
7 | CN1CC2=C(N=C(S)NC2c2ccc(Cl)cc2)/C(=C/c2ccc(Cl)cc2)C1 (configuration not stated) | 17.4 µM (inactive) | 14.1 µM (inactive) | 14.6 µM (inactive) | 12.6 µM (inactive) | 18.3 µM (inactive) | 20.8 µM (inactive) | 14.9 µM (inactive) | 5.32 µM (inactive) | 14.8 µM (inactive) | 25.8 µM (inactive) | 17.3 µM (inactive) | > 10 µM (inactive) | 22.6 µM (inactive) | 20 µM (inactive) | 25.8 µM (inactive) | 19 µM (inactive) |  | 15.5 µM (inactive)
8 | COc1ccc(/C=C/[N+](=O)[O-])cc1 | 4.04 µM (inactive) | 6.52 µM (inactive) | 2.77 µM (inactive) | 3.53 µM (inactive) | 2.79 µM (inactive) | 19.4 µM (inactive) | 1.86 µM (inactive) | 2.8 µM (inactive) | 6.9 µM (inactive) |  |  | 3.52 µM (inactive) | 13 µM (inactive) | 2.94 µM (inactive) | 11.3 µM (inactive) | 2.51 µM (inactive) |  | 20.4 µM (inactive)
9 | O=C(Cn1c2c(c3ccccc31)CCCC2)N1CCCC1 | > 100 µM (inactive) |  | 94.6 µM (inactive) | > 10 µM (inactive) | > 100 µM (inactive) |  | 77.1 µM (inactive) |  | > 100 µM (inactive) | > 100 µM (inactive) | > 100 µM (inactive) | > 100 µM (inactive) | > 100 µM (inactive) | > 100 µM (inactive) | 38.4 µM (inactive) | > 100 µM (inactive) | > 100 µM (inactive) | 
10 | CC1=C(C#N)C2C(=C(C)N1)C(N)=Nc1ccccc12 (configuration not stated) | 42.8 µM (inactive) | 88.7 µM (inactive) | 29.3 µM (inactive) |  | 36.4 µM (inactive) | 31.8 µM (inactive) |  | 33.2 µM (inactive) | 44.4 µM (inactive) |  | 76.4 µM (inactive) | 37.1 µM (inactive) | 46.8 µM (inactive) | 99.5 µM (inactive) |  | 73.1 µM (inactive) | 12.1 µM (inactive) | 30.8 µM (inactive)
11 | O=C1Nc2ccc(Br)cc2/C1=N/N1C(=O)C(=O)N(C2CCCCC2)C1=S | 2.92 µM (inactive) | 9.42 µM (inactive) | 2.16 µM (inactive) | 3.69 µM (inactive) | 1.64 µM (inactive) | 6.64 µM (inactive) | 1.94 µM (inactive) | 2.26 µM (inactive) | 3.66 µM (inactive) | 4.25 µM (inactive) | 4.33 µM (inactive) | 9.64 µM (inactive) | 12.2 µM (inactive) | 9.55 µM (inactive) | 1.51 µM (inactive) | 5.26 µM (inactive) | 14.4 µM (inactive) | 
12 | CC(NC1=NCCO1)c1cccs1 (configuration not stated) | 19.5 µM (inactive) | 87.9 µM (inactive) | 17.9 µM (inactive) | 22.1 µM (inactive) | 18.2 µM (inactive) | 76.7 µM (inactive) | 19.7 µM (inactive) | 22.1 µM (inactive) | 28.8 µM (inactive) | 23.7 µM (inactive) | 57.9 µM (inactive) | 20.5 µM (inactive) | > 100 µM (inactive) | 18.1 µM (inactive) | 24.9 µM (inactive) | 52.8 µM (inactive) | 12.6 µM (inactive) | 
13 | C1=NN2C(c3ccccc3)=NOC2C2C(c3ccccc3)=NOC12 (configuration not stated) | > 100 µM (inactive) | > 100 µM (inactive) |  |  | > 100 µM (inactive) | > 100 µM (inactive) |  |  | > 100 µM (inactive) |  | > 100 µM (inactive) | > 100 µM (inactive) | > 100 µM (inactive) | > 100 µM (inactive) | > 100 µM (inactive) | > 100 µM (inactive) |  | 42.9 µM (inactive)
14 | CC(=O)OC/C=C(/CCl)CCC(Br)C(C)(C)Br.CC(=O)OC/C=C(\CCl)CCC(Br)C(C)(C)Br (configuration not stated) | > 10 µM (inactive) | > 10 µM (inactive) | > 10 µM (inactive) | > 10 µM (inactive) | > 10 µM (inactive) | > 10 µM (inactive) | > 10 µM (inactive) | > 10 µM (inactive) | > 10 µM (inactive) | > 10 µM (inactive) | > 10 µM (inactive) | > 10 µM (inactive) | > 10 µM (inactive) | > 10 µM (inactive) | > 10 µM (inactive) | > 10 µM (inactive) |  | > 10 µM (inactive)
15 | CC(=O)OCCC[C@@H]1C(=C(C)C)CCC2[C@@]1(C)CC[C@@]1(C)C[C@](C)(CCC=C(C)C)CC[C@]21C (some centres not stated) | > 100 µM (inactive) | > 100 µM (inactive) | > 100 µM (inactive) |  | > 100 µM (inactive) | > 100 µM (inactive) | > 100 µM (inactive) | > 100 µM (inactive) | > 100 µM (inactive) | > 100 µM (inactive) | > 100 µM (inactive) | > 100 µM (inactive) | < 0.01 µM (active) | > 100 µM (inactive) | 13.5 µM (inactive) | > 100 µM (inactive) |  | > 100 µM (inactive)
16 | CC(C)OC(=O)C1(C(C)C)CCc2ccc(C(=O)CCC(=O)O)cc21 (configuration not stated) | > 100 µM (inactive) | > 100 µM (inactive) | > 100 µM (inactive) | > 100 µM (inactive) | > 100 µM (inactive) | > 100 µM (inactive) |  | > 100 µM (inactive) | > 100 µM (inactive) | > 100 µM (inactive) | > 100 µM (inactive) | > 100 µM (inactive) | > 100 µM (inactive) | > 100 µM (inactive) | > 100 µM (inactive) | > 100 µM (inactive) |  | > 100 µM (inactive)
17 | CCCCCCCC1(N=[N+]=[N-])C(=O)Nc2ccccc2C1=O (configuration not stated) | 20 µM (inactive) | 14.9 µM (inactive) | > 10 µM (inactive) | 16.4 µM (inactive) | 17.7 µM (inactive) | 21.7 µM (inactive) | 18.2 µM (inactive) | 10.4 µM (inactive) | 21.4 µM (inactive) | 25.5 µM (inactive) | 15.7 µM (inactive) | 17.5 µM (inactive) | 17.2 µM (inactive) | 21 µM (inactive) | 12.7 µM (inactive) | 14.8 µM (inactive) | 13.6 µM (inactive) | 
